According to patent US5173494A, “Specific inhibition of angiotensin-II binding to angiotensin-II receptor subtype-2” (E. I. du Pont de Nemours and Company, priority 1991, dated 1992):

What was measured:
[1] = tested on: scopolamine-induced impairment of eight arm radial maze performance; conditions: 3 mg/kg IP; cited from earlier work
uphill avoidance = conditions: mice, acute, 30 mg/kg PO; cited from earlier work
[2] = tested on: scopolamine-induced PA amnesia; conditions: three times per day at 1, 3 and 10 mg/kg PO; cited from earlier work
[3] = tested on: ACh in the striatum and hypothalamus; conditions: acute or repeated administration; cited from earlier work
[4] = tested on: mouse habituation (light to dark compartment latency); conditions: cited from earlier work
[5] = tested on: potassium-stimulated release of ACh in entorhinal cortex; conditions: in vitro, entorhinal cortex from rat brain; cited from earlier work
[6] = tested on: renin-induced disruption of passive avoidance retention; assay: Renin-disrupted passive avoidance retention; type: in vivo, male Sprague-Dawley rats; conditions: rats; for prevention of renin-induced amnesia: co-administered with renin, IVT
Description: Experimentally naive male Sprague-Dawley rats […] (Charles River Breeding Laboratories, Kingston, N.Y.), weighing between 175 to 200 gm were used. The animals were housed four per cage (45.0 L×20.0 H×26.0 W cm) with free access to food and water. They were maintained on a 12 h light/dark cycle (lights on 0600 h) and at a room temperature of 22±1° C. with relative humidity of 50±10%.
The experimental sessions were conducted in a two-compartment passive avoidance box. One compartment, made of clear plastic with a perforated clear plastic floor, measured 21(L)×24.5(H)×17(W) cm and was illuminated with a 60 watt incandescent light bulb placed 36 cm above the floor. The other compartment, made of black plastic, measured 30.5(L)×20.3(H)×[…] with a floor made of 4 mm stainless steel rods spaced 1.2 cm apart. A grid floor shocker (Coulbourn Instruments) was connected to the steel rods and provided scrambled footshock. The two compartments were separated by a solenoid-operated slide door (Lafayette Instrument Co., Lafayette, Ind.). An electronic counter (Coulbourn Instruments), triggered by the opening or closing of the slide door, recorded acquisition and retention latencies (latencies were defined as the time it took an animal to enter the dark compartment).
Passive avoidance training began by placing the rat into the clear compartment of the two-compartment passive avoidance box. Following a 10 sec delay, the slide door to the dark compartment was raised. Once the rat moved completely into the dark compartment (all four paws on the shock grid floor) the slide door was lowered, and after a 10 sec delay, a 1.0 mA shock was applied to the grid floor for three sec. A second three sec shock was delivered after an additional 10 sec delay. The rats were immediately removed from the dark compartment and returned to their home cage. A retention test was given 24 h later. It proceeded in the same manner as the training session except that no shock was applied to the grid floor when the rats were provided access to the dark compartment for a maximum of 300 sec.
All drugs were administered IVT 60 minutes prior to acquisition training in a volume of 5 μl. Doses are expressed as the free base weight of each compound.

[7] = tested on: memory of previously learned tasks; conditions: in vivo; cited from earlier work
[8] = tested on: retention of a passive avoidance (PA) response; conditions: rats, dorsal neostriatum injection; cited from earlier work
[9] = tested on: renin-induced amnesia in a PA task; assay: PA task after IVT renin (own laboratory); type: in vivo
[10] = tested on: renin-induced avoidance disruption; conditions: cited from earlier work
[11] = tested on: light/dark habituation performance; conditions: subchronic treatment; cited from earlier work
[12] = tested on: AII in cerebrospinal fluid (CSF); conditions: renin IVT; increased from 40; cited from earlier work

CCOC(=O)C(CCc1ccccc1)NC(C)C(=O)N1CC2(CC3CCC2CC3)CC1C(=O)O (stereo not shown) [Hoe 288]
effect of muscarinic receptor blockade on performance [1]: partially antagonized the effects of muscarinic receptor blockade on performance | performance during retention testing, uphill avoidance (uphill avoidance): improved performance during retention testing | effect on scopolamine-induced PA amnesia [2]: partially reversed the amnesia | ACh in the striatum and hypothalamus [3]: significant decrease in ACh

CN1[C@@H]2C[C@@H](OC(=O)[C@H](CO)c3ccccc3)C[C@H]1[C@@H]1O[C@@H]12 [scopolamine]
performance following scopolamine in vehicle-treated mice (initial latency) ([4]; scopolamine 0.25 mg kg^-1 i.p., day 6): increase in the initial latency

[1-sarcosine, 8-threonine]angiotensin-II
antagonism of AII effect on ACh release [5]: antagonized

CCCc1nc(C(F)(F)F)c(C(=O)O)n1Cc1ccc(-c2ccccc2-c2nn[nH]n2)cc1 [Compound C, 2-n-propyl-1-[(2'-(lH-tetrazol-5-yl)biphenyl-4-yl)methyl]-4-trifluoromethylimidazole-5-carboxylic acid]
prevention of renin-induced amnesia [6]: protected against amnesia

NCCCC[C@H](OP(=O)(O)CCCCc1ccccc1)C(=O)N1CCC[C@H]1C(=O)O [SQ 29852]
effect on anticholinergic effect on performance [7]: ameliorate, at least in part, an anticholinergic effect on performance | effect on memory of previously learned tasks [7]: protective effects on memory of previously learned tasks

Cc1cc(Cn2cnc3c2CC(C(=O)O)N(C(=O)C(c2ccccc2)c2ccccc2)C3)ccc1N (stereo not shown) [EXP655, 1-(4-amino-3-methylphenyl)methyl-5-diphenylacetyl-4,5,6,7-tetrahydro-1H-imidazo[4,5-c]pyridine-6-carboxylic acid]
prevention of renin-induced amnesia [6]: less effective in preventing the amnesia | initial latency to move from light to dark compartment ([4]; 10.0 ng kg^-1 i.p. b.d., days 2 and 3, vs vehicle): decrease in the initial latency to move from the light to dark compartment | scopolamine-induced impairment in mice treated with EXP655 ([4]; EXP655 10.0 ng kg^-1 i.p., scopolamine 0.25 mg kg^-1 i.p., day 6): not detected

NC(=O)[C@@H]1CCCN1C(=O)[C@H](Cc1cnc[nH]1)NC(=O)[C@@H]1CCC(=O)N1 [thyrotropin releasing hormone]
effect on retention of a PA response [8]: had no effect

lysine-8-vasopressin
effect on retention of a PA response [8]: had no effect

AII: Angiotensin-II (AII), a circulating hormone, now thought to act as a neuropeptide in the central nervous system (DRVYIHPF; Angiotensin-2; UniProt P01019 25-32, looked up)
effect on retention of a PA response [8]: disruption in retention of a PA response | basal levels of ACh release [5]: without effects on basal levels | potassium-stimulated release of ACh [5]: reduced potassium-stimulated release of ACh

CCCc1nc(C(F)(F)F)c(CO)n1Cc1ccc(-c2ccccc2-c2nnn[nH]2)cc1 [Compound D, 2-n-propyl-5-hydroxymethyl-1-[(2'-(1H-tetrazol-5-yl)biphenyl-4-yl)methyl]-4-trifluoromethylimidazole]
prevention of renin-induced amnesia [6]: protected against amnesia

C[C@H](CS)C(=O)N1CCC[C@H]1C(=O)O [captopril]
prevention of renin-induced amnesia in a PA task ([9]; IVT administration): prevented | prevention of renin-induced avoidance disruption ([10]; IVT, prior to the renin injection): prevented the renin-induced avoidance disruption | rate of acquisition of light/dark habituation performance [11]: increased the rate of acquisition

B1: renin: Renin (Sigma Chemicals), a stimulator of endogenous AII biosynthesis (protein, UniProt P00797 67-406, looked up)
Renin: LTLGNTTSSVILTNYMDTQYYGEIGIGTPPQTFKVVFDTGSSNVWVPSSKCSRLYTACVYHKLFDASDSSSYKHNGTELTLRYSTGTVSGFLSQDIITVGGITVTQMFGEVTEMPALPFMLAEFDGVVGMGFIEQAIGRVTPIFDNIISQGVLKEDVFSFYYNRDSENSQSLGGQIVLGGSDPQHYEGNFHYINLIKTGVWQIQMKGVSVGSSTLLCEDGCLALVDTGASYISGSTSSIEKLMEALGAKKRLFDYVVKCNEGPTLPDISFHLGGKEYTLTSADYVFQESYSSKKLCTLAIHAMDIPPPTGPTWALGATFIRKFYTEFDRRNNRIGFALAR
amnesia in a PA task ([9]; renin administered IVT): produces a dose-related amnesia | effect on avoidance learning ([10]; renin into lateral ventricle (IVT)): disruption of avoidance learning | memory deficit produced by renin ([6]; renin injected IVT): produces memory deficit in rats | AII in cerebrospinal fluid after renin [12]: about 5000 fmol per mL
